One assay has as its target T1, mTOR (Homo sapiens, UniProt P42345).
T1 construct: purchased Millipore 14-770
The experiment in a line: Biochemical mTOR assay (Millipore mTOR assay kit). How it is done: The biochemical mTOR assay was carried out by the method described in the Millipore mTOR assay kit (catalogue number 14-770).

The target of the next assay is DNA-PK protein complex (Homo sapiens, UniProt P78527). Nature of the assay: Biochemical DNA-PK assay (FlashPlate). Put shortly: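 Streptavidin-coated FlashPlate radiometric kinase assay, stopped with 200 mM EDTA, then wells washed with 0.9% NaCl and bound radioactivity counted. Blank (non-specific reaction) defined with a proprietary kinase inhibitor at 10 μM.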
In assay [1] the test system is PI3K-dependent phosphorylation of PKB at Serin 473 in PC3 cells. The experiment in a line: Cellular PI3K assay (P-S473-PKB Luminex assay in PC3 cells). In kind it is cell-based. As to conditions: Homo sapiens, PC-3, 0.5 h, read-out: IC50 (cell). Put shortly:
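PC3 cells were exposed for 30 min under serum-free conditions to 7 concentrations of compound, then lysed. Lysates were captured overnight at 4°C on anti-total-PKB Luminex beads and detected with P-S473-PKB antibody plus PE-labelled secondary.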

In a further assay the target is PI3Kalpha (Homo sapiens, UniProt P42336). Nature of the assay: Biochemical PI3Kalpha assay (neomycin SPA, lipid phosphorylation). Conditions: human recombinant GST-PI3K. Put shortly:
(§1)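 Recombinant PI3K incubated with lipid substrate and radioactive ATP for 120 min at room temperature with gentle stirring, then stopped with neomycin-coated PVT-SPA beads, ATP 60 mM and EDTA 6.2 mM in PBS. After 60 min bead binding and centrifugation, radioactive Ptdlns(3)P counted by scintillation.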

The next assay addresses PI3Kbeta (Homo sapiens, UniProt P42338). The experiment in a line: Biochemical PI3Kbeta assay (neomycin SPA, lipid phosphorylation). As to conditions: human recombinant GST-PI3K. The method in brief: as §1
Assay [2] has as its target recombinant PI3Kalpha (shortened form of the catalytic subunit) (Homo sapiens, UniProt P42336). The experiment in a line: BIACORE PI3K binding assay (SPR). As to conditions: 25° C. The method in brief:
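Contact time was 180 s and dissociation 240 s, in HEPES pH 7.40 buffer with 2% DMSO. Solvent-corrected, double-referenced data were fitted to a 1:1 model with mass transport.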
In general terms: In SPR one partner is held on a chip, and binding of the other changes the refractive index at the surface.

[3] abbreviates: PC3 cells, 30 min, serum-free, P-S473-PKB.

As usually defined, the IC50 is the point on the concentration scale where inhibition reaches its midpoint. By Kd is commonly meant a measure of binding affinity in units of concentration.

Where two headings read alike, the source gives them in different places. Where only a bound is given, the exact number is not on record here.

PI3Kbeta, sequence (P42338 whole entry): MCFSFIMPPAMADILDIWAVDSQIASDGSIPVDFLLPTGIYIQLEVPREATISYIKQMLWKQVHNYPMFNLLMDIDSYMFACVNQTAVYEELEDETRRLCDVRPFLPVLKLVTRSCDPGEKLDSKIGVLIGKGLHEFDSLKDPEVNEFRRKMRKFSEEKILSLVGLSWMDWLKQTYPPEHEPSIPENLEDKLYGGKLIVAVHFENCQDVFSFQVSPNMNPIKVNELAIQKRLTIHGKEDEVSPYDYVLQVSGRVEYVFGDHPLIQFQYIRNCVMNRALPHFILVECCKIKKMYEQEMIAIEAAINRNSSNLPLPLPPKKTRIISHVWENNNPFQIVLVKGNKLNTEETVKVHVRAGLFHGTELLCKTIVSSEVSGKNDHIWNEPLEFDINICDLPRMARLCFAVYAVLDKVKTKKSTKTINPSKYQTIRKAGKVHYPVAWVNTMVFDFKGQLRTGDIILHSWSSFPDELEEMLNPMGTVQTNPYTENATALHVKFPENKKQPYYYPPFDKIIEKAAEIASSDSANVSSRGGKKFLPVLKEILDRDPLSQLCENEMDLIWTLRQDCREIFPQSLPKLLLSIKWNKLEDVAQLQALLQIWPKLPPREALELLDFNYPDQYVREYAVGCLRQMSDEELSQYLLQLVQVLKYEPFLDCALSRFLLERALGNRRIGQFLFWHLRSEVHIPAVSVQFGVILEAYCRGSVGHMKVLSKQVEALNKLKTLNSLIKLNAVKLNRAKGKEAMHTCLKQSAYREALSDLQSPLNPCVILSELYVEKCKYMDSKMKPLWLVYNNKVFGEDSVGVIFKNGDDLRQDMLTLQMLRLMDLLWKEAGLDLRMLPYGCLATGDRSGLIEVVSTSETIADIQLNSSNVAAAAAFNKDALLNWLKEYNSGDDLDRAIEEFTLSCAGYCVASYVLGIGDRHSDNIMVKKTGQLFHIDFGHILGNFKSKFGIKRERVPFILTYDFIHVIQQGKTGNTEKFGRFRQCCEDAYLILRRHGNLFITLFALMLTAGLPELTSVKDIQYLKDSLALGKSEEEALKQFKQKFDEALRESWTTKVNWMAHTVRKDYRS
PI3Kbeta, sequence (P27986 whole entry partner): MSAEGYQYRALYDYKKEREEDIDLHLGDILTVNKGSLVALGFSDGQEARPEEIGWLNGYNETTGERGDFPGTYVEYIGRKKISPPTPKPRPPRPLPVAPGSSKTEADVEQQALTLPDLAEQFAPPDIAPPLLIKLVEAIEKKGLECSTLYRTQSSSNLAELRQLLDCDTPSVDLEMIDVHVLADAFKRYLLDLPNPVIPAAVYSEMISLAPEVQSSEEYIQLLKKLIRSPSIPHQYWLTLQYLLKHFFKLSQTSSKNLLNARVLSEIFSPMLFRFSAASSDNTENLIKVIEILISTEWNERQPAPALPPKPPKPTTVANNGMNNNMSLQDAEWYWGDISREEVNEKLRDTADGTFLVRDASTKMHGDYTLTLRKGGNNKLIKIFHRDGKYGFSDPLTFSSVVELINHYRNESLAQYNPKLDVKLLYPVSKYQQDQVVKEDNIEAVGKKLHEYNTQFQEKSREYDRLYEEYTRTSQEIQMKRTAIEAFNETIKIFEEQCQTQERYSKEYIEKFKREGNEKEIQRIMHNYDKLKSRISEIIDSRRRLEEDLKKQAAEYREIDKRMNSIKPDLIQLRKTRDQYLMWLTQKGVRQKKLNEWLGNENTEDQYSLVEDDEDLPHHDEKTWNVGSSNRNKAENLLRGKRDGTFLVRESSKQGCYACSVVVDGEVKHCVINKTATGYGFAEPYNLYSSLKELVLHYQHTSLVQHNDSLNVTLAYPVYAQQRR
recombinant PI3Kalpha (shortened form of the catalytic subunit), sequence (P42336 151-1068 limits assumed): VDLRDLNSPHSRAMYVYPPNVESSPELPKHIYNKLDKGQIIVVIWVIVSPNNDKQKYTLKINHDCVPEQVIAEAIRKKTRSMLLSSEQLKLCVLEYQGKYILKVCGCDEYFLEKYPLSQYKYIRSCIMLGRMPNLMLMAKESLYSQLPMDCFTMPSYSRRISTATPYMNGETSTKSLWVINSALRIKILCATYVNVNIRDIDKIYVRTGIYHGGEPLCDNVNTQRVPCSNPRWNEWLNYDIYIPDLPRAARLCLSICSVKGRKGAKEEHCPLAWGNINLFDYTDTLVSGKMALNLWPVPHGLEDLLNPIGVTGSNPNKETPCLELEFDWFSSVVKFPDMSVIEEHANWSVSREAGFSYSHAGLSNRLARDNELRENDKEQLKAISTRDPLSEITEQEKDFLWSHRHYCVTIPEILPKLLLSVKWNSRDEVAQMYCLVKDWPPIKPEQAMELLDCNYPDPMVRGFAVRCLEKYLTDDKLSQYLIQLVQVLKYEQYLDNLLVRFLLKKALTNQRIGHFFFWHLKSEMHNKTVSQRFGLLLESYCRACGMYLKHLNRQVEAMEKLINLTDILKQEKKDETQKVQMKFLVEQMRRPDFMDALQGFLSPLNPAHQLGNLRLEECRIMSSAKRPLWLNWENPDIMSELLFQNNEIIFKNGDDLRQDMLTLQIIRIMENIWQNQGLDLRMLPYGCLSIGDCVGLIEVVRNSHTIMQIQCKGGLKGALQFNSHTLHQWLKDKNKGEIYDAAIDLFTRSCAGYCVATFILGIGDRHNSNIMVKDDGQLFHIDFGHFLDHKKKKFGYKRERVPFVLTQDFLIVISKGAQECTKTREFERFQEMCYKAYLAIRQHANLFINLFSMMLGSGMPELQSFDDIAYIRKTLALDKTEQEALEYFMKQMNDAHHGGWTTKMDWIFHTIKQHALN
T1 sequence (P42345 1362-2549 limits assumed): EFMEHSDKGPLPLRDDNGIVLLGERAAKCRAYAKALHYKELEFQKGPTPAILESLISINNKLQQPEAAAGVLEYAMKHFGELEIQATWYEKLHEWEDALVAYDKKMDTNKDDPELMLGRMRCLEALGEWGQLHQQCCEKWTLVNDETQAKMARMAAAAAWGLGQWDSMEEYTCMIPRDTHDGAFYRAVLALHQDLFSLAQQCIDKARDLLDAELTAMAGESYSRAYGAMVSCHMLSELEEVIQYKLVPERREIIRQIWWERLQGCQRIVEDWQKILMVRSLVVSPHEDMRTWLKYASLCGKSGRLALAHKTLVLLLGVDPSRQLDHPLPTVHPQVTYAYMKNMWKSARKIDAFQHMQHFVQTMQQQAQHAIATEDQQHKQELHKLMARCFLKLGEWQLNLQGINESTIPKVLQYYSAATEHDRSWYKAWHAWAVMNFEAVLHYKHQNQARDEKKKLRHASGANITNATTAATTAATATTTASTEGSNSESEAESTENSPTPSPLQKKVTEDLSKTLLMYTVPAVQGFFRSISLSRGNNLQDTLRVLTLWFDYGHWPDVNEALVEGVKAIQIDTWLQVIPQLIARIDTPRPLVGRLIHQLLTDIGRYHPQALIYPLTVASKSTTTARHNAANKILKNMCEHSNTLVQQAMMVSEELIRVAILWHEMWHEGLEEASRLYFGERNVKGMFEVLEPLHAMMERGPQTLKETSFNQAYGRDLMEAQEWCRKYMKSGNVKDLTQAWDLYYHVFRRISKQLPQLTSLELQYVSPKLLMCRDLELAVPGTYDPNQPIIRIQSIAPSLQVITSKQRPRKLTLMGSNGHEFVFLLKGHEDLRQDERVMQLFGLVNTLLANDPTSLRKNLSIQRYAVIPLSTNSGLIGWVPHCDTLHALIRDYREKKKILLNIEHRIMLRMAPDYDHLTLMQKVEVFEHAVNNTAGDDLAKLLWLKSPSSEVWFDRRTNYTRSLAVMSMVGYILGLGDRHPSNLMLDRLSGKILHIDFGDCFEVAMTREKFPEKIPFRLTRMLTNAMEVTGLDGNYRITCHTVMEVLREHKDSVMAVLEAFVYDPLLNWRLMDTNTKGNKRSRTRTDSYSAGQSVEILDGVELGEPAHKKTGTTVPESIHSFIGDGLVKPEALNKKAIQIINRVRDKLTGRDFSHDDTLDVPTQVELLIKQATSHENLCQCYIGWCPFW
PI3Kalpha, sequence (P42336 whole entry): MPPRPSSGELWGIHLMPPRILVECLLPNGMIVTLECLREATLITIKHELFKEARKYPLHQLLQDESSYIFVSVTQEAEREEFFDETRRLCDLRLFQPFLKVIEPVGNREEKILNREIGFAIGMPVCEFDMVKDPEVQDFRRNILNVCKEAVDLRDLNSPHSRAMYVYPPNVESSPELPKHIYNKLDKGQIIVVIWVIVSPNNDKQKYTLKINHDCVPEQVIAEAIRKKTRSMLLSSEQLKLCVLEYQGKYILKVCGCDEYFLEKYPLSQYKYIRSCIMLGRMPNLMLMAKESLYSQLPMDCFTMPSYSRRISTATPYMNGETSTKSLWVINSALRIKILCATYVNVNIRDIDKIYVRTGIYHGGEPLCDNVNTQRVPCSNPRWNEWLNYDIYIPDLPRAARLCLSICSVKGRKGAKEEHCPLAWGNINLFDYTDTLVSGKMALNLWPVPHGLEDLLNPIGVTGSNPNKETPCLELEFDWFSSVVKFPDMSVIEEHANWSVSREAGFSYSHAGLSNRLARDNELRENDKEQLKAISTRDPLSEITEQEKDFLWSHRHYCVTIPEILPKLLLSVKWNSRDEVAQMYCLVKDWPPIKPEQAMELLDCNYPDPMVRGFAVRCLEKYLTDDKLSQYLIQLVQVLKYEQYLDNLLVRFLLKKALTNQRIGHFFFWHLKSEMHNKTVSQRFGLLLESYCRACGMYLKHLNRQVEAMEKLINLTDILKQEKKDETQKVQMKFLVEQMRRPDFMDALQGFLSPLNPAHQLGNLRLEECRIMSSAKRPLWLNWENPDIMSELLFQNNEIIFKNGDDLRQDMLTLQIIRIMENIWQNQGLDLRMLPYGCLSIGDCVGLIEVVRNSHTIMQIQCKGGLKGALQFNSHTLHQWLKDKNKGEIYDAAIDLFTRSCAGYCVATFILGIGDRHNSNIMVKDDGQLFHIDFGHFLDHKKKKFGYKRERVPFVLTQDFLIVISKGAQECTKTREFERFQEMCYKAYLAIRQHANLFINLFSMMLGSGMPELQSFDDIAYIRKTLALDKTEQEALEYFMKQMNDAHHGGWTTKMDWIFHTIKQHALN
PI3Kalpha, sequence (P27986 whole entry partner): as the sequence (P27986 whole entry partner) above

Take `COc1ccc(-c2ccnc(-c3cn(C)c(=O)n3-c3ccc(N4CCNCC4)c(C(F)(F)F)c3)c2)cn1` [Example A20, 4-(6-Methoxy-[3,4′]bipyridinyl-2′-yl)-1-methyl-3-(4-piperazin-1-yl-3-trifluoro-methylphenyl)-1,3-dihydroimidazol-2-one]: the IC50 at mTOR was in the range of 100 to 10000 nM; against DNA-PK protein complex, 0.1 to 100 nM; in assay [1] (setting [3]), 100 to 10000 nM; at PI3Kalpha, 100 to 10000 nM; on PI3Kbeta, 100 to 10000 nM. Further, in assay [2], the Kd fell in the range of 100 to 10000 nM.
For the compound `Cn1cc(-c2cc(-c3cnc4ccccc4c3)ccn2)n(-c2ccc(C(C)(C)C(=O)O)cc2)c1=O` [Example A22, 2-Methyl-2-{4-[3-methyl-2-oxo-5-(4-quinolin-3-ylpyridin-2-yl)-2,3-dihydroimidazol-1-yl]phenyl}propionic acid], the 50% inhibitory concentration (IC50) was 100 to 10000 nM at mTOR; 100 to 10000 nM against DNA-PK protein complex; more than 10000 nM in assay [1] (setting [3]); 100 to 10000 nM on PI3Kalpha; more than 10000 nM at PI3Kbeta. Moreover, in assay [2], the Kd lay in the range of 100 to 10000 nM.
In the case of `Cn1cc(-c2cc(-c3ccnc4[nH]ccc34)ccn2)n(-c2ccc(C(C)(C)C#N)cc2)c1=O` [Example A23, 2-Methyl-2-(4-{3-methyl-2-oxo-5-[4-(1H-pyrrolo[2,3-b]pyridin-4-yl)pyridin-2-yl]-2,3-dihydroimidazol-1-yl}phenyl)propionitrile], the IC50 against mTOR was 100 to 10000 nM; at DNA-PK protein complex, 0.1 to 100 nM; in assay [1] (setting [3]), 100 to 10000 nM; on PI3Kalpha, 100 to 10000 nM; at PI3Kbeta it was more than 10000 nM. Moreover, the Kd in assay [2] fell in the range of 100 to 10000 nM.
Regarding `CCn1cc(-c2cc(-c3cnc4[nH]ccc4c3)ccn2)n(-c2ccc(C(C)(C)C#N)cc2)c1=O` [Example A24, 2-(4-{3-Ethyl-2-oxo-5-[4-(1H-pyrrolo[2,3-b]pyridin-5-yl)pyridin-2-yl]-2,3-dihydro-imidazol-1-yl}phenyl)-2-methylpropionitrile], the IC50 was 0.1 to 100 nM at mTOR; 0.1 to 100 nM at DNA-PK protein complex; 100 to 10000 nM in assay [1] (setting [3]); 100 to 10000 nM on PI3Kalpha; 100 to 10000 nM at PI3Kbeta. In assay [2], the Kd lay within 0.1 to 100 nM.
Turning to `Cn1cc(-c2cc(-c3cnc4[nH]c(C(F)(F)F)cc4c3)ccn2)n(-c2ccc(C(C)(C)C#N)cc2)c1=O` [Example A27, 2-Methyl-2-(4-{3-methyl-2-oxo-5-[4-(2-trifluoromethyl-1H-pyrrolo[2,3-b]pyridin-5-yl)pyridin-2-yl]-2,3-dihydroimidazol-1-yl}phenyl)propionitrile], the half-inhibitory concentration (IC50) at mTOR is 0.1 to 100 nM; against DNA-PK protein complex, 0.1 to 100 nM; in assay [1] (setting [3]) it was 100 to 10000 nM; at PI3Kalpha, 100 to 10000 nM; on PI3Kbeta it was more than 10000 nM. For the same compound, the equilibrium dissociation constant (Kd) in assay [2] is 100 to 10000 nM.
With `Cn1cc(-c2cc(-c3cnc4[nH]ncc4c3)ccn2)n(-c2ccc(N3CCNCC3)c(C(F)(F)F)c2)c1=O` [Example A46, 1-Methyl-3-(4-piperazin-1-yl-3-trifluoromethylphenyl)-4-[4-(1H-pyrazolo[3,4-b]-pyridin-5-yl)pyridin-2-yl]-1,3-dihydroimidazol-2-one], the half-maximal inhibitory concentration (IC50) fell in the range of 100 to 10000 nM on mTOR; 0.1 to 100 nM against DNA-PK protein complex; 100 to 10000 nM in assay [1] (setting [3]); 0.1 to 100 nM on PI3Kalpha; 100 to 10000 nM at PI3Kbeta. In assay [2], the Kd was in the range of 0.1 to 100 nM.
As to `CN1CCN(c2ccc(-n3c(-c4cc(-c5cnc6[nH]ccc6c5)ccn4)cn(C)c3=O)cc2)CC1` [Example A50, 1-Methyl-3-[4-(4-methylpiperazin-1-yl)phenyl]-4-[4-(1H-pyrrolo[2,3-b]pyridin-5-yl)pyridin-2-yl]-1,3-dihydroimidazol-2-one], the IC50 on mTOR was in the range of 100 to 10000 nM; against DNA-PK protein complex, 0.1 to 100 nM; in assay [1] (setting [3]), 100 to 10000 nM; at PI3Kalpha, 100 to 10000 nM; on PI3Kbeta it was 100 to 10000 nM. Also, in assay [2], the Kd is 0.1 to 100 nM.
`Cn1cc(-c2cc(-c3ccc(N)cc3)ccn2)n(-c2ccc(N3CCNCC3)c(C(F)(F)F)c2)c1=O` [Example A60, 4-[4-(4-Aminophenyl)pyridin-2-yl]-1-methyl-3-(4-piperazin-1-yl-3-trifluoromethyl-phenyl)-1,3-dihydroimidazol-2-one]: the IC50 is more than 10000 nM against mTOR; 0.1 to 100 nM on DNA-PK protein complex; 100 to 10000 nM in assay [1] (setting [3]); 100 to 10000 nM at PI3Kalpha; more than 10000 nM on PI3Kbeta. Moreover, the Kd in assay [2] fell in the range of 100 to 10000 nM.
`Cn1cc(-c2cc(-c3cnc4[nH]ncc4c3)ccn2)n(-c2cccc(C#N)c2)c1=O` [Example A63, 3-{3-Methyl-2-oxo-5-[4-(1H-pyrazolo[3,4-b]pyridin-5-yl)pyridin-2-yl]-2,3-dihydro-imidazol-1-yl}benzonitrile]: the IC50 was in the range of 0.1 to 100 nM on mTOR; 0.1 to 100 nM on DNA-PK protein complex; 100 to 10000 nM in assay [1] (setting [3]); 0.1 to 100 nM on PI3Kalpha; 100 to 10000 nM at PI3Kbeta. Also, in assay [2], the Kd lay within 0.1 to 100 nM.
For `CC(=O)N1CCN(c2ccc(-n3c(-c4cc(-c5cnc6[nH]ccc6c5)ccn4)cn(C)c3=O)cc2C(F)(F)F)CC1` [Example A72, 3-[4-(4-Acetylpiperazin-1-yl)-3-trifluoromethylphenyl]-1-methyl-4-[4-(1H-pyrrolo[2,3-b]pyridin-5-yl)pyridin-2-yl]-1,3-dihydroimidazol-2-one], the IC50 was in the range of 100 to 10000 nM at mTOR; 0.1 to 100 nM at DNA-PK protein complex; 0.1 to 100 nM in assay [1] (setting [3]); 100 to 10000 nM at PI3Kalpha; 100 to 10000 nM at PI3Kbeta. Besides, the Kd in assay [2] was in the range of 0.1 to 100 nM.
As for `COc1cccc(-n2c(-c3cc(-c4cnc5[nH]ccc5c4)ccn3)cn(C)c2=O)c1` [Example A73, 3-(3-Methoxyphenyl)-1-methyl-4-[4-(1H-pyrrolo[2,3-b]pyridin-5-yl)pyridin-2-yl]-1,3-dihydroimidazol-2-one], the IC50 on mTOR fell in the range of 0.1 to 100 nM; on DNA-PK protein complex, 0.1 to 100 nM; in assay [1] (setting [3]), 100 to 10000 nM; on PI3Kalpha it was 100 to 10000 nM; at PI3Kbeta, 100 to 10000 nM. In assay [2], the Kd was in the range of 0.1 to 100 nM.
With `Cc1cc2cc(-c3ccnc(-c4cn(C)c(=O)n4-c4ccc(C(C)(C)C#N)cc4)c3)cnc2[nH]1` [Example A85, 2-Methyl-2-(4-{3-methyl-5-[4-(2-methyl-1H-pyrrolo[2,3-b]pyridin-5-yl)pyridin-2-yl]-2-oxo-2,3-dihydroimidazol-1-yl}phenyl)propionitrile], the IC50 against mTOR lay within 100 to 10000 nM; against DNA-PK protein complex it was 0.1 to 100 nM; in assay [1] it was 100 to 10000 nM; at PI3Kalpha, 100 to 10000 nM; on PI3Kbeta, 100 to 10000 nM. Further, the Kd in assay [2] lay in the range of 0.1 to 100 nM.
As to `CN1CCN(c2ccc(-n3c(-c4cc(-c5cnc6[nH]c(C(C)(C)C)cc6c5)ccn4)cn(C)c3=O)cc2C(F)(F)F)CC1` [Example A86, 4-[4-(2-tert-Butyl-1H-pyrrolo[2,3-b]pyridin-5-yl)pyridin-2-yl]-1-methyl-3-[4-(4-methylpiperazin-1-yl)-3-trifluoromethylphenyl]-1,3-dihydroimidazol-2-one], the IC50 was 100 to 10000 nM on mTOR; 0.1 to 100 nM at DNA-PK protein complex; 100 to 10000 nM in assay [1] (setting [3]); 100 to 10000 nM on PI3Kalpha; 100 to 10000 nM at PI3Kbeta. Besides, the dissociation constant Kd in assay [2] fell in the range of 100 to 10000 nM.
For `CN1CCN(c2ccc(-n3c(-c4cc(-c5cnc6[nH]c(C(F)(F)F)cc6c5)ccn4)cn(C)c3=O)cc2C(F)(F)F)CC1` [Example A87, 1-Methyl-3-[4-(4-methylpiperazin-1-yl)-3-trifluoromethylphenyl]-4-[4-(2-trifluoro-methyl-1H-pyrrolo[2,3-b]pyridin-5-yl)pyridin-2-yl]-1,3-dihydroimidazol-2-one], the IC50 on mTOR is 100 to 10000 nM; on DNA-PK protein complex, 0.1 to 100 nM; in assay [1] (setting [3]) it was 100 to 10000 nM; at PI3Kalpha, 100 to 10000 nM; on PI3Kbeta it was 100 to 10000 nM. In assay [2], the Kd is 100 to 10000 nM.
As to `Cn1cc(-c2cc(-c3ccc4ncncc4c3)ccn2)n(-c2ccc(C(C)(C)C#N)cc2)c1=O` [Example A91, 2-Methyl-2-{4-[3-methyl-2-oxo-5-(4-quinazolin-6-ylpyridin-2-yl)-2,3-dihydro-imidazol-1-yl]phenyl}propionitrile], the IC50 is 100 to 10000 nM on mTOR; 0.1 to 100 nM against DNA-PK protein complex; more than 10000 nM in assay [1] (setting [3]); 100 to 10000 nM at PI3Kalpha; more than 10000 nM at PI3Kbeta. Besides, the equilibrium dissociation constant (Kd) in assay [2] lay within 100 to 10000 nM.
Consider `Cn1cc(-c2cc(-c3cnc4[nH]c(C(C)(C)C)cc4c3)ccn2)n(-c2ccc(C(C)(C)C#N)cc2)c1=O` [Example A92, 2-(4-{5-[4-(2-tert-Butyl-1H-pyrrolo[2,3-b]pyridin-5-yl)pyridin-2-yl]-3-methyl-2-oxo-2,3-dihydroimidazol-1-yl}phenyl)-2-methylpropionitrile], for which the IC50 was 100 to 10000 nM against mTOR; 0.1 to 100 nM at DNA-PK protein complex; more than 10000 nM in assay [1] (setting [3]); 100 to 10000 nM at PI3Kalpha; 100 to 10000 nM at PI3Kbeta. In addition, the Kd in assay [2] lay within 100 to 10000 nM.

Source of the values: patent US8802866B2, “Pyridinylimidazolone derivatives for the inhibition of PI3 kinases” (Merck Patent GmbH, priority 2009, dated 2014).
